We go through two compounds from patent publication US5837728A, “9-cis retinoic acid esters and amides and uses thereof” (priority 1995, dated 1998).

Structures are written as SMILES.

In assay [1] the test system is ornithine decarboxylase (ODC). The assay is described as follows: ODC/Retinoid Bioassay: inhibition of TPA induced ornithine decarboxylase activity. The assay is classed as in vivo, CD-1 mice. Conditions: topical, TPA induced. On the procedure: The ODC/Retinoid Bioassay is based on the method of Verma, A. K. and Boutwell, R. K., Cancer Res. (1977) 37:2196-2201. The ODC assay measures a compounds effect on the prevention of the induction of ODC, namely the effect of the retinoid compound on the inhibition of the tumor promoter 12-O-tetradecanoylphorbol-13-acetate (TPA) induced ODC activity. The assay is carried out using CD-1 mice (aged 7 to 9 weeks). The dorsal hair of the mice is shaved 3-4 days before testing. Four mice are used for each point. The test retinoids, at one of two dose levels (1.7 and 17 nmoles) dissolved in 0.2 ml of acetone is applied topically to the back of each shaved mouse. A single dose of TPA ([…]) is applied to the back of each treated mouse 30 minutes later. Control groups are treated with either acetone alone, TPA, or tretinoin. The mice are sacrificed by cervical dislocation 5 hours after TPA treatment.
The dorsal skin encompassing the shaved and TPA exposed area is excised and placed in a 100 ml beaker containing distilled water maintained at 51° C.-57° C. The skin is soaked for 50-70 seconds at this temperature with intermittent stirring. The skin is placed epidermis side up in a chilled (0°-5° C.) stainless steel plate and the epidermal layer is scraped off with a razor blade. The epidermal layers from the 4 mice are pooled and placed in a homogenization tube with 2 ml of ODA buffer ([…] with […] pyridoxal phosphate, […] ethylenediaminetetraacetic acid (EDTA), 1 mM dithiothreitol, pH 7.5). The pooled epidermal layers are homogenized for 15 seconds at 0° C. using a Polytron homogenizer at a setting of 7.5. The homogenate is centrifuged at 30,000×g and the supernatant fraction is pipetted into a storage tube and frozen for about 72 hours.
The homogenate is assayed for ODC activity as described by Verma and Boutwell to measure the release of ^14 CO2 from labeled DL(1-14C) ornithine. Incubations are carried out in disposable centrifuge tubes with center well holders containing filter paper impregnated with sodium hydroxide to absorb ^14 CO2. The incubation mixture consisted of 90 μl of L-ornithine, 350 μl of ODC buffer, 100 μl of 14C-ornithine (1.32 nm, Sp. Act:4.4 pCi/pM) and 10 μl of test sample. After incubation at 37° C. for 45 minutes, 0.5 ml of 2M chilled citric acid (4° C.) is added and incubation is continue for an additional 30 minutes to insure complete absorption of ^14 CO2. The filter paper is removed from the center well holders and set in 1 ml of water in capped scintillation vials for at least 1 hour before adding RBI 3820 scintillation cocktail. Radioactivity is measured in a Tri Carb Scintillation Counter. Results are expressed as pmol of ^14 CO2 released in 30 minutes per milligram of protein based on the specific activity of DL-14C-ornithine. The results are expressed in Table 2 below as the % reduction in ODC activity as compared to the control, for the compounds of each of the preceding Examples: […]

For assay [2], the system named is pseudocomedone (utriculus) of the rhino mouse. In words: Topical rhino mouse pseudocomedone (utriculus) reduction assay. The assay is classed as in vivo. Also on record: Utriculus reduction (Table 1) / Utriculus reduction (Table 3): key to the marks not given beside the values. Conditions: for Utriculus reduction (Table 1): 0.1% concentration, once daily 5 days/week for two weeks; for Utriculus reduction (Table 3): concentration 0.1 (unit not given); for Utriculus Reduction (Table 7): two weeks. On the procedure: A topical assay to test for pseudocomedone (utriculus) reduction in the rhino mouse is conducted.
Each test compound and a vehicle control is applied topically to the dorsal trunk of the rhino mouse. The utriculus diameters are measured with a ocular micrometer. […] Kligman, et al., The Effect on Rhino Mouse Skin of Agents which Influence Keratinization and Exfoliation, J. Invest. Derm. […] Van Scott, Experimental Animal Integumental Models for Screening Potential Dermatologic Drugs, In Pharmacology of the Skin, eds. […] Mann, Hair Loss and Cyst Formation in Hairless and Rhino Mutant Mice, Anat. Rec. […] Mezick, et al., Topical and Systemic Effects of Retinoids on Horn-Filled Utriculus Size in the Rhino Mouse. A Model to Quantify Antikeratinizing Effects of Retinoids, J. Invest. Derm. […] Mezick, et al., Anti-Acne Activity of Retinoids in the Rhino Mouse, In Models in Dermatology, eds.
(§1) The dorsal trunk of the rhino mouse is the test site. Each test compound is dissolved in alcohol:propylene glycol (70:30, v:v) or other suitable vehicle and topically applied (0.1 ml) to the dorsal trunk once daily, five consecutive days/week for two weeks. Also, administration may be oral (p.o.) in a suitable vehicle. Following treatment, the animals are sacrificed by cervical dislocation. The treated dorsal trunk skin is removed from the animal and placed into 0.5% acetic acid for up to 18 hours at approximately 4° C. After this, the epidermis with the acne cysts is separated from the underlying dermis. The sheets of epidermis are processed by routine methods to permanent whole mounts for microscopic examination. Also, full-thickness samples may be taken, stained (H&E), and examined by light microscopy.
The utriculus diameters are measured with an ocular micrometer to compare effects of test compounds to vehicle control and/or reference compound on cyst reduction. Light microscopy is used to determine effects on cell differentiation.
Another topical assay is conducted following the procedure described above.
Each test compound and a vehicle control was applied topically to the dorsal trunk of the rhino mouse. The utriculus diameters are measured with a ocular micrometer. […] Kligman, et al., J. Invest. […] Van Scott, Pharmacology of the Skin, eds. […] Mann, Anat. […] Mezick, et al, J. Invest. […] Mezick et al., Models in Dermatology, eds.
as §1, with “(70:30,v:v)” for “(70:30, v:v)”, “weeks.” for “weeks. Also, administration may be oral (p.o.) in a suitable vehicle.”, “"acne cysts"” for “acne cysts”, “are” for “may be”, “(H&E)” for “(H&E),”, “microscope.” for “microscopy.”

Where [3] appears, read: 17.0 nM (as printed in Table 2).

As for `COc1ccc(C(=O)COC(=O)/C=C(C)/C=C/C=C(C)\C=C\C2=C(C)CCCC2(C)C)cc1` [Compound 2, 2-(9-cis-retinoyloxy)-4'-methoxyacetophenone], the ODC activity reduction result in assay [1] (1.7 nM (as printed in Table 2)) is given as “++”. Moreover, the ODC activity reduction result in assay [1] (setting [3]) is given as “+++”. Besides, in assay [2], the “Utriculus reduction (Table 1)” value is listed as “+++” and the “Utriculus reduction (Table 3)” value is on record as “+++”.
Consider `CC1=C(/C=C/C(C)=C/C=C/C(C)=C/C(=O)O)C(C)(C)CCC1` [all-trans-retinoic acid, reference compound], for which the ODC activity reduction result in assay [1] (setting [3]) is “+++”. The “Utriculus reduction (Table 1)” value in assay [2] is “++”. The “Utriculus reduction (Table 3)” value in assay [2] is given as “++”. The “Utriculus Reduction (Table 7)” value was 34.1 in assay [2] (dose 0.0005%), 49.9 in assay [2] (dose 0.005%) and 72.8 in assay [2] (dose 0.05%).
